Data: PMC9570594, “Development of Novel Pyridine-Thiazole Hybrid Molecules as Potential Anticancer Agents” (Molecules, 2022)

Legend:
MDA-MB-435 (Melanoma) = test: NCI five-dose SRB assay; assay type: cell-based; settings: Homo sapiens, 48 h
BT-549 (Breast Cancer) = test: NCI five-dose SRB assay; assay type: cell-based; settings: Homo sapiens, 48 h
TK-10 (Renal Cancer) = test: NCI five-dose SRB assay; assay type: cell-based; settings: Homo sapiens, 48 h
LOX IMVI (Melanoma) = test: NCI five-dose SRB assay; assay type: cell-based; settings: Homo sapiens, 48 h
HCT-15 (Colon Cancer) = test: NCI five-dose SRB assay; assay type: cell-based; settings: Homo sapiens, 48 h
[1] = system: Melanoma cell lines (MG_MID); test: NCI five-dose SRB assay; assay type: cell-based; settings: Homo sapiens, 48 h
[2] = system: NCI-H23 (Non-Small Cell Lung Cancer); test: NCI five-dose SRB assay; assay type: cell-based; settings: Homo sapiens, 48 h
Jurkat (leukemia) = test: MTT assay of cell viability; settings: Homo sapiens, 72 h
SF-268 (CNS Cancer) = test: NCI five-dose SRB assay; assay type: cell-based; settings: Homo sapiens, 48 h
[3] = system: human embryonic kidney HEK293 cells; test: MTT assay of cell viability; settings: HEK293, 72 h
UACC-257 (Melanoma) = test: NCI five-dose SRB assay; assay type: cell-based; settings: Homo sapiens, 48 h
[4] = system: MCF-7 breast cancer cells; test: Annexin V-FITC/PI binding assay (flow cytometry); settings: MCF-7, 5 µM, 24 h; control 4.4 ± 0.6%
SR (Leukemia) = test: NCI five-dose SRB assay; assay type: cell-based; settings: Homo sapiens, 48 h
SN12C (Renal Cancer) = test: NCI five-dose SRB assay; assay type: cell-based; settings: Homo sapiens, 48 h
KM12 (Colon Cancer) = test: NCI five-dose SRB assay; assay type: cell-based; settings: Homo sapiens, 48 h
[5] = system: EKVX (Non-Small Cell Lung Cancer); test: NCI five-dose SRB assay; assay type: cell-based; settings: Homo sapiens, 48 h
KB3-1 (cervix) = test: MTT assay of cell viability; settings: Homo sapiens, KB 3-1, 72 h, KB3-1; 72 h of incubation, M ± SD
[6] = system: NCI-H522 (Non-Small Cell Lung Cancer); test: NCI one-dose SRB assay; settings: 10 μM, 48 h
Description: Primary anticancer assays (Table 3) on a panel of 60 cancer cell lines at one dose-assay (10^−5 M) were performed according to the NCI protocol, as described elsewhere [31, 32, 33, 34, 35].
(§1) A primary anticancer assay was performed on a panel of approximately sixty human tumor cell lines derived from nine neoplastic diseases, in accordance with the protocol of the Drug Evaluation Branch, National Cancer Institute, Bethesda [31, 32, 33, 34, 35]. Tested compounds were added to the culture at a single concentration (10^−5 M) and the cultures were incubated for 48 h. End point determinations were made with a protein binding dye, Sulphorhodamine B (SRB). […] The percentage growth was evaluated spectrophotometrically versus controls not treated with test agents.

MCF-7 (Breast Cancer) = test: NCI five-dose SRB assay; assay type: cell-based; settings: Homo sapiens, MCF7, 48 h
SF-539 (CNS Cancer) = test: NCI five-dose SRB assay; assay type: cell-based; settings: Homo sapiens, 48 h
[7] = system: HOP-92 (Non-Small Cell Lung Cancer); test: NCI five-dose SRB assay; assay type: cell-based; settings: Homo sapiens, 48 h
[8] = system: Colon Cancer cell lines (MG_MID); test: NCI five-dose SRB assay; assay type: cell-based; settings: Homo sapiens, 48 h
[9] = system: human epidermal keratinocytes of HaCaT line; test: MTT assay of cell viability; settings: 72 h
[10] = system: BALB-3T3 (normal mouse fibroblasts); test: MTT assay of cell viability; settings: BALB/3T3, 72 h
MCF-7 cells [11] = test: Chemical synthetic lethality: MTT after preincubation with BRCA1 inhibitor Bractoppin; assay type: cell-based; settings: Homo sapiens, MCF7; MCF-7, 30 min preincubation with Bractoppin, 72 h MTT; read-out: IC50 in the case of BRCA1 inhibition
UACC-62 (Melanoma) = test: NCI five-dose SRB assay; assay type: cell-based; settings: Homo sapiens, 48 h
M14 (Melanoma) = test: NCI five-dose SRB assay; assay type: cell-based; settings: Homo sapiens, 48 h
A498 (Renal Cancer) = test: NCI five-dose SRB assay; assay type: cell-based; settings: Homo sapiens, 48 h
U251 (CNS Cancer) = test: NCI one-dose SRB assay; settings: 10 μM, 48 h
Description: as §1

HCT-116 (colon) = test: MTT assay of cell viability; settings: Homo sapiens, HCT-116, 72 h, HCT-116; 72 h of incubation, M ± SD
MCF-7 cells [12] = test: Clonogenic assay; assay type: cell-based, human; settings: 10 days
Description: This assay essentially tests every cell in the population for its ability to undergo “unlimited” division. […] At 1 µM concentration, it reduced the ability of the MCF-7 single cell to grow into a colony to 36%. […] With a concentration equivalent to 10 µM of the compound 4, the DMSO increased the cell’s ability to grow in colony.
MCF-7 cells were seeded in triplicate in 6-well plates (CytoONE, STARLAB International GmbH, Germany) at a density of 500 cells per well. After 24 h incubation, the compound 4 was added in 1 and 10 μM concentrations and cells were treated for 10 days. Colonies containing ≥ 50 cells were fixed with 50% (v/v) methanol in the PBS and stained with crystal violet (Sigma-Aldrich, Burlington, MA, USA). Stained colonies were counted and expressed as a fraction of the untreated control.

MCF-7 cell line = test: Time-dependent viability test (MTT); assay type: cell-based, human; settings: MCF-7, 10 µM
Description: A strong correlation was detected between the treatment time and an anti-proliferative potential. The cytotoxic effect of this compound develops after […] of incubation. This feature may explain the difference of cell viability compared with the NCI results which were obtained at 48th hour of incubation of cells with derivative 4. […] The result obtained at 48th hour of treatment of the MCF-7 cells with the compound 4 in concentration 10 µM correlates to some extent with data of the NCI screening. At that time point, 43% of the cells died.
Time-dependent viability data were obtained as a result of 24, 48, 72, and 124 h MTT tests performed on the MCF-7 cells treated with the compound 4 (10 μM).

[13] = system: panel of 60 cancer cell lines; test: NCI DTP one-dose primary anticancer assay (10^-5 M, SRB)
OVCAR-5 (Ovarian Cancer) = test: NCI five-dose SRB assay; assay type: cell-based; settings: Homo sapiens, 48 h

CCOC(=O)c1ccc(NC(=O)CSC(CC(=O)c2sc(Nc3ccccn3)nc2C)c2ccccc2F)cc1 (centres unmarked) [Compound 4, Ethyl 4-[[2-[1-(2-Fluorophenyl)-3-[4-methyl-2-(2-pyridylamino)thiazol-5-yl]-3-oxopropyl]sulfanylacetyl]amino]benzoate]
GI50 (MDA-MB-435 (Melanoma)): 26.3 µM | GI50 (BT-549 (Breast Cancer)): 14.7 µM | GI50 (TK-10 (Renal Cancer)): 82.3 µM | GI50 (LOX IMVI (Melanoma)): 0.312 µM | GI50 (HCT-15 (Colon Cancer)): 25.8 µM | GI50 [1]: 25.3 µM | GI50 [2]: 22.7 µM | IC50 (Jurkat (leukemia)): 5.36 ± 0.16 µM | GI50 (SF-268 (CNS Cancer)): 43.1 µM | IC50 [3]: > 50 µM | GI50 (UACC-257 (Melanoma)): 38.4 µM | apoptotic cells (sum of early and late apoptotic cells) [4]: 42.7 ± 7.0% | GI50 (SR (Leukemia)): 24.1 µM | GI50 (SN12C (Renal Cancer)): 28 µM | GI50 (KM12 (Colon Cancer)): 55.6 µM | GI50 [5]: 19 µM | IC50 (KB3-1 (cervix)): 7.63 ± 0.38 µM | Growth % [6]: −22.73% | GI50 (MCF-7 (Breast Cancer)): 15.4 µM | GI50 (SF-539 (CNS Cancer)): 32.5 µM | GI50 [7]: 12.5 µM | GI50 [8]: 51.6 µM | IC50 [9]: > 50 µM | IC50 [10]: 7.79 ± 0.38 µM | IC50 (MCF-7 cells [11]): 0.7 µM | GI50 (UACC-62 (Melanoma)): 16.1 µM | GI50 (M14 (Melanoma)): 19.4 µM | GI50 (A498 (Renal Cancer)): 69.2 µM | Growth % (U251 (CNS Cancer)): −70.41% | IC50 (HCT-116 (colon)): 6.11 ± 0.24 µM | ability of single cell to grow into a colony (compared with control) (MCF-7 cells [12]; MCF-7, 1 µM): 36% | colony formation (MCF-7 cells [12]; MCF-7, 10 µM): No colony formation was observed | cells killed (MCF-7 cell line; 24 h): 19.9% | cells died (MCF-7 cell line; 48 h): 43% | cells died (MCF-7 cell line; 124 h): 90% | Mean Growth, % ([13]; 10 μM, 48 h, 60 cell lines): −2.78% | Range of Growth, % ([13]; 10 μM, 48 h, 60 cell lines): −76.78–41.12% | Positive Cytostatic Effect ([13]; 10 μM, number of cell lines with percent growth from 0 to 50 / total number of cell lines): 35/60 | Positive Cytotoxic Effect ([13]; 10 μM, number of cell lines with percent growth of <0 / total number of cell lines): 25/60 | inhibition at 10 µM ([13]; Homo sapiens, 48 h, read-out: growth inhibition of all 60 tested cancer cell lines): > 50% | GI50 (OVCAR-5 (Ovarian Cancer)): 74.4 µM
